Values after ≈ are worked out from the molar mass of the structure shown.
Assays:
[1] = Toxicity in brine shrimp; format: organism-based; details: artemia, in vivo
Artemia = assay: Toxicity in brine shrimp at 100 ug/mL; format: organism-based; details: in vivo

COc1cc2ccc(=O)oc2cc1OC/C=C(\C)CC/C=C(\C)CO [ARTEKEISKEANOL A] showed an LC50 [1] of 60 µg/mL (≈ 174 µM).

For COc1cc2ccc(=O)oc2c(OC)c1OC/C=C(\C)CC/C=C(\C)CO [ARTEKEISKEANOL C], the Activity (Artemia) was “Non-toxic”.

In the case of COc1cc2ccc(=O)oc2c(OC)c1OC/C=C(\C)CC/C=C(/C)CO [ARTEKEISKEANOL D], the Activity (Artemia) is reported as “Non-toxic”.

For COc1cc2ccc(=O)oc2cc1OC/C=C(\C)CC/C=C(/C)CO [ARTEKEISKEANOL B], the LC50 [1] was 70 µg/mL (≈ 203 µM).
